SMILES	melting point [°C]
COC(=O)c1cc(C(=O)NC(C)C(=O)OC)c2ccc(Cc3ccc(F)cc3)nc2c1O (stereo not drawn)	157 to 158
CCCCN1CCSC1S(=O)(=O)N=NC(=O)Nc1nc(OC)cc(OC)n1 (stereo not drawn)	139 to 140
O=c1c2ccccc2c(Br)c(Br)c2ccc(Br)cc12	173 to 175
CN1C(=O)c2ccccc2C(CCO)N1c1cccc([N+](=O)[O-])c1 (stereo not drawn)	183 to 184
COc1ccc(/C=C/C(=O)Nc2ccccc2C(=O)NCc2cn(CC(=O)Nc3ccccc3)nn2)cc1OC	189 to 191
Cc1c(C#N)c(=O)oc2c(C)c(O)c(CC(Br)CBr)cc12 (stereo not drawn)	175 to 176
Cc1oc(-c2ccc3ccccc3c2)nc1C=Cc1ccc(/C=C/C=O)cc1	213 to 214
CCOC(=O)c1cnoc1-c1ccc(F)c(Cl)c1	106 to 107
CC(C)(C)C(O)(COc1ccc(F)cc1)C(C)(F)n1cncn1 (stereo not drawn)	90 to 93
Cc1cc(F)ccc1-c1ccc(S(=O)(=O)N2c3ccccc3CC2C(=O)NCCOc2ccc(CC(=O)O)cc2)cc1 (stereo not drawn)	99 to 105
CCCOc1ccc(S(=O)(=O)N2CCN(C)CC2)cc1-c1cc2c(=O)n(C)c(=O)n(CCC)c2[nH]1	240
CCCCc1oc2ccc(NS(=O)(=O)c3ccc(C)cc3)cc2c1C(=O)c1ccc(OCCCN(CCCC)CCCC)cc1	110
CCn1cnc2c(Nc3cccc(C(F)(F)F)c3)nc(NCCCO)nc21	136 to 137
C[C@H]1C[C@@H](Nc2ccccc2)c2ccccc2N1C(=O)c1ccccn1 (relative stereo)	157
CCC(CO)(c1cccs1)N(C)C (stereo not drawn)	66 to 68
C#Cc1cccc(Oc2ccc3c(c2)C(=O)N(c2cccc(C#C)c2)C3=O)c1	150 to 160
Clc1ccc(Nc2nncc3ccccc23)cc1	211
Cc1cc(-c2cccc(CO)c2)cn2cc(-c3ccc(Cl)cc3)nc12	174 to 177
COc1ccc(CSc2ccc(OCC(=O)O)c3c2CCC3)cc1OCc1ccc(C(F)(F)F)cc1	150 to 151
CCCCCCS(=O)(=O)Oc1c(I)cc(I)cc1I	70 to 71
COc1cc(C2C3=C(COC3=O)N(Cc3ccc([N+](=O)[O-])cc3)c3cc4c(cc32)OCO4)cc(OC)c1O (stereo not drawn)	193
CCc1nnc(NS(=O)(=O)c2ccc(N)cc2)s1	190 to 191
COc1ccc(CCNc2c(C)c(C)c3c(c2C)C(c2ccc(C(C)C)cc2)C(C)(C)O3)cc1 (stereo not drawn)	63 to 65
N#CCCN1C(=O)C2(OCCCO2)c2ccc(Cl)cc21	163 to 164
Cc1ccc(C)c(OCCO)c1	45 to 48
Cc1cnnc2c1C(=O)CC(c1cc(Cl)ccc1F)C2 (stereo not drawn)	124 to 125
CC(C)(C)c1ccc(CC[C@H](CC2CCCCC2)O[Si](C)(C)C(C)(C)C)cc1NC(=O)CC1c2ccccc2Oc2ccccc21	173 to 174

SMILES	melting point [°C]
O=C=Nc1ccc(OC(=O)CCC(=O)Oc2ccc(N=C=O)cc2)cc1	193 to 195
Cc1c(SCCCSCC2CN(C)C(=O)O2)ccnc1CNc1cnc2ccccc2c1 (stereo not drawn)	98 to 100
CCOC(=O)c1cnc2sc3c(n12)CCC3	101 to 102
Cc1cc(Cl)cc2c(-c3ccccc3)onc12	108 to 109
CCN(CC)C(=O)Oc1cc(-c2ccccc2)nc2ccc([N+](=O)[O-])cc12	40
Cc1c(CCc2ccc3[nH]c(N)nc3c2)ncn1C(c1ccccc1)(c1ccccc1)c1ccccc1	161 to 164
COc1ccc(-c2nc(CCn3ccnc3)nc3cc(OC)c(OC)cc23)cc1OC	147 to 148
Nc1c(F)c(N2CC(n3cncn3)C2)c(F)c2c1c(=O)c(C(=O)O)cn2C1CC1	293 to 295
O=C(NC1CCC(CCN2CCC(c3cccc4c3CCO4)CC2)CC1)C1CCOC1 (racemic)	211
Brc1ccc(C2=CCN(CCSCc3c[nH]c4ccccc34)CC2)cc1	166 to 167
CSc1cc(C(=O)c2cc(C(C)(C)C)c(O)c(C(C)(C)C)c2)cn1C	173 to 175
CCOc1ccc(N2CCN(c3c(C)c4c(c(OC)c3C)OC(C)C4)CC2)cc1 (stereo not drawn)	117 to 119
CCOCc1nc2c(N)nc3cc(-c4ccccc4)ccc3c2n1CC(C)(C)NS(C)(=O)=O	239 to 242
O=C(CP(=O)(O)O)NC1CCCCC1	180 to 183
Cc1ccc(S(=O)(=O)Oc2ccc(S(=O)(=O)c3c(-c4ccccc4)noc3C(C)C)cc2)cc1	148 to 149
CC(C)(C)OC(=O)C(F)=CC1C(C(=O)OC(C#N)c2ccc(F)c(Oc3ccccc3)c2)C1(C)C (stereo not drawn)	122
Cc1cc(-c2cc(C(F)(F)F)nc(-c3ccnc(-c4cccc(S(N)(=O)=O)c4)c3)n2)ccc1Cl	234
O=C(O)[C@@H]1C[C@@H](C(=O)O)N(C(=O)OCc2ccccc2)C1	98 to 100
C#CCSc1nc[nH]n1	102 to 104
Cc1ccccc1CNC(=S)c1ccc2c(c1)N(C(C)CN1CCCC1)c1ccccc1S2 (racemic)	110
C#CCN(Cc1ccc2nc(NC(=O)C(C)(C)C)[nH]c(=O)c2c1)c1ccc(C#N)cc1	183 to 186
C#Cc1ccnc(-c2cc(N)c(C#Cc3ccc(C(C)=S)cc3)cc2[N+](=O)[O-])c1	185 to 188
CCOC(=O)c1cc(NCc2c(C)cccc2C)c2nc(C)n(COCc3ccccc3)c2c1	155 to 156
CCC1=NC(=NOC(=O)NC)SC1(C)CC (stereo not drawn)	88 to 90
COc1ccc(OC)c(Cc2cnc3nc(N)nc(N)c3c2C)c1	252 to 254
N#Cc1cccc(C(=O)Cn2cncn2)c1	172 to 173

Results, then the compound that gave them:

melting point [°C]	SMILES
150 to 152	Cc1ccccc1C(=O)c1[nH]c2cc(Cl)ccc2c1CC(=O)O
259 to 260	Cc1ncc2cc(-c3ccccc3Cl)c(N)nc2n1
86	CCC=NNC=C(C(=O)OCC)C(=O)c1cc(F)c(F)c(F)c1F
99 to 101	C=CCC1(CCNC(=O)C2CCC2)c2cc(OC)ccc2CCC12OCCO2 (stereo not drawn)
> 270	N[C@@]1(C(=O)O)C[C@H](NC(=O)Nc2ccccc2F)[C@H]2[C@H](C(=O)O)[C@H]21 (relative stereo)
> 300	O=C(O)c1cn2c3c(c(F)c(F)cc3c1=O)OCC2
140	O=C(Nc1ccccc1S(=O)(=O)N1CCCCC1)N[C@@H](Cc1ccc(Oc2nccc3cnccc23)cc1)C(=O)O
140 to 142	O=C(O)CCc1cc2ccccc2s1
117 to 118	CC(C)(SCc1ccccc1)[C@@H]1C[C@H](CSCc2ccccc2)C(=O)N1CC(=O)O (relative stereo)
173 to 174	COc1ccc(-c2cc(N3CCN(c4ccccc4)CC3)nc(C)c2-c2ccc(OC)cc2)cc1
74 to 76	CC(=O)c1nc(-c2ccccc2)oc1C
> 220	CCc1ccc(Oc2cnc(S)[nH]c2=O)cc1
54	CCn1c(C(F)(F)F)n[nH]c1=O
138	Oc1ccc(C=C2c3ccccc3CCc3ccccc32)cc1O
215 to 217	CCCCC(=O)OCCOCn1cnc2c(=O)[nH]c(N)nc21
95 to 97	CC(=O)OC1CCC(n2cnc3cc(Cl)c(Cl)cc32)C1OC(C)=O (stereo not drawn)
228 to 230	COc1cc(C(=N)N)ccc1OCc1ccc(CN2C(=O)c3ccccc3C2=O)cc1
44 to 45	CO[C@@H]1CN(Cc2ccccc2)C[C@H]1NC(=O)OC(C)(C)C
209 to 211	COc1ccccc1-c1cncc(OC2SCC(O)C(O)C2O)c1 (stereo not drawn)
276 to 278	COc1cccc2sc(C3(c4ccc(S(N)(=O)=O)cc4)C=C(C(F)(F)F)NN3)nc12 (stereo not drawn)
150 to 153	C#CCNc1ccc([N+](=O)[O-])cc1
80 to 81	CC(C)n1nc(CC(=O)c2cccc(F)c2)ccc1=O
174 to 177	CC(=O)Oc1c(C(C)C)c(-c2ccc(F)cc2)c(O)c(C(C)C)c1C(C)C

melting point [°C]	SMILES
146 to 148	CCc1nc2c(N)nc3c(c2n1CCOCCS(C)(=O)=O)CCCC3
133 to 134	CC(=O)OCc1cccc(Nc2nccc(-c3cnn(C(C)=O)c3-c3ccccc3)n2)c1
106 to 108	CCNc1cccnc1N1CCN(C(=O)c2ccc(C(=O)N(CC)CCO)cc2)CC1
63 to 67	CCCCC1=NC(NC(=O)C2(NC(=O)CCC(C)C)CCCC2)C(=O)N(Cc2ccccn2)c2ccccc21 (stereo not drawn)
144 to 145	CC(C)(C)OC(=O)N1CCC[C@H]1Cn1ccc2c3ccn(Cc4ccc(F)cc4)c(=O)c3ccc21
238 to 246	O=C(O)COc1ccc(S(=O)(=O)C(Br)(Br)Br)cc1
163 to 164	CN(C)c1nc(N(C)C)nc(N(C)Cc2ccc(O)cc2)n1
144 to 146	O=[N+]([O-])c1cccc2c(Cl)ccnc12
94 to 96	Nc1cc(F)nc(F)c1F
68 to 70	Cc1c(C(=O)Cl)cccc1[N+](=O)[O-]
210 to 212	CC(C)c1cccc2c1OC(C(F)(F)F)C(C(=O)O)=C2 (stereo not drawn)
125	Nc1ccc(Oc2ncc(Cl)cn2)cc1
96 to 98	CC(C)(C)OC(=O)[C@@H]1CN(Cc2ccccc2)C(=O)N1
212	O=C(O)Cc1cc(C(=O)C=Cc2ccc(F)cc2)ccc1O
109 to 110	CC1(c2cc(-c3cccc(CC4SC(N5CCCC5)=NC4=O)c3)ccc2O)CCCCC1 (stereo not drawn)
295 to 296	O=c1[nH]c2c(c3nc(-c4ccccc4Cl)nn13)CN(Cc1ccccc1)CC2
130 to 132	Nc1c(Cl)ncnc1Nn1cccc1
197 to 198	CSc1nn2c(Cl)cc(C)nc2c1S(=O)(=O)c1ccc(C)cc1
234 to 235	Cc1ccc(NC(=O)c2cccc(CN3C(=O)C4(COc5cc6c(cc54)CCO6)c4ccccc43)c2)c(C)c1 (stereo not drawn)
70 to 71	CCCCCCCCCCCCCCc1c[nH]c(C=O)c1
191 to 192	CCCc1nc2c(N)nc3ccccc3c2n1CC(C)C
126 to 127	O=C(NC1C2CC3CC(C2)CC1C3)C1CCCCN1Cc1ccccn1 (stereo not drawn)
